Measurements reported in ChEMBL document CHEMBL1124763, “Nucleoside conjugates. 11. Synthesis and antitumor activity of 1-beta-D-arabinofuranosylcytosine and cytidine conjugates of thioether lipids” (1990).

How the values were obtained:
[1] = test system: Mus musculus; experiment: Increase of life span was determined against Ip implanted L1210 / ara-C lymphoid leukemia in mice at a dose of 300 mg/kg per day; assay type: functional; conditions: route intraperitoneal
[2] = test system: Mus musculus; experiment: Increase of life span was determined against Ip implanted L1210 / 0 lymphoid leukemia in mice at a dose of 200 mg/kg per day after treatment 1;8/7.5; assay type: functional; conditions: L1210/0, ip, route intraperitoneal
[3] = test system: Mus musculus; experiment: Range of survival days for antitumor activity against Ip implanted L1210 / ara-C lymphoid leukemia in mice at a dose of 300 mg/kg per day; range is 8-9; assay type: functional; conditions: route intraperitoneal
[4] = test system: Mus musculus; experiment: Range of survival days for antitumor activity against Ip implanted L1210 / 0 lymphoid leukemia in mice at a dose of 200 mg/kg per day after treatment 1; range is 4-8; assay type: functional; conditions: route intraperitoneal
[5] = test system: Mus musculus; experiment: Survival time treated / survival time (T/C) for antitumor activity against Ip implanted L1210 / 0 lymphoid leukemia in mice at a dose of 200 mg/kg per day after treatment 1; assay type: functional; conditions: route intraperitoneal
[6] = test system: Mus musculus; experiment: Survival time treated/survival time tested (T/C) for antitumor activity against Ip implanted L1210 / ara-C lymphoid leukemia in mice at a dose of 300 mg/kg per day;8/9; assay type: functional; conditions: route intraperitoneal
[7] = test system: Mus musculus; experiment: Increase of life span was determined against Ip implanted L1210 / 0 lymphoid leukemia in mice at a dose of 100 mg/kg per day after treatment 1; assay type: functional; conditions: L1210/0, ip, route intraperitoneal
[8] = test system: Mus musculus; experiment: Increase of life span was determined against Ip implanted L1210 / 0 lymphoid leukemia in mice at a dose of 200 mg/kg per day after treatment 1; assay type: functional; conditions: L1210/0, ip, route intraperitoneal
[9] = test system: Mus musculus; experiment: Range of survival days for antitumor activity against Ip implanted L1210 / 0 lymphoid leukemia in mice at a dose of 100 mg/kg per day after treatment 1; range is 4-11; assay type: functional; conditions: route intraperitoneal
[10] = test system: Mus musculus; experiment: Range of survival days for antitumor activity against Ip implanted L1210 / 0 lymphoid leukemia in mice at a dose of 200 mg/kg per day after treatment 1; assay type: functional; conditions: route intraperitoneal
[11] = test system: Mus musculus; experiment: Survival time treated / survival time (T/C) for antitumor activity against Ip implanted L1210 / 0 lymphoid leukemia in mice at a dose of 200 mg/kg per day after treatment 1;6/7; assay type: functional; conditions: route intraperitoneal
[12] = test system: Mus musculus; experiment: Survival time treated / survival time (T/C) for antitumor activity against Ip implanted L1210 / 0 lymphoid leukemia in mice at a dose of 100 mg/kg per day after treatment 1;9.5/7; assay type: functional; conditions: route intraperitoneal
[13] = test system: Mus musculus; experiment: Increase of life span was determined against Ip implanted L1210 / ara-C (II) lymphoid leukemia in mice at a dose of 300 mg/kg per day; assay type: functional; conditions: route intraperitoneal
[14] = test system: Mus musculus; experiment: Increase of life span was determined against Ip implanted L1210 / 0 lymphoid leukemia in mice at a dose of 300 mg/kg per day after treatment 1; assay type: functional; conditions: L1210/0, ip, route intraperitoneal
[15] = test system: Mus musculus; experiment: Range of survival days for antitumor activity against Ip implanted L1210 / ara-C (II )lymphoid leukemia in mice at a dose of 300 mg/kg per day; range is 7-8; assay type: functional; conditions: route intraperitoneal
[16] = test system: Mus musculus; experiment: Range of survival days for antitumor activity against Ip implanted L1210 / 0 lymphoid leukemia in mice at a dose of 300 mg/kg per day after treatment 1; range is 7-9; assay type: functional; conditions: route intraperitoneal
[17] = test system: Mus musculus; experiment: Survival time treated/survival time tested (T/C) for antitumor activity against Ip implanted L1210 / ara-C (II) lymphoid leukemia in mice at a dose of 300 mg/kg per day;8/9; assay type: functional; conditions: route intraperitoneal
[18] = test system: Mus musculus; experiment: Median survival time for antitumor activity against Ip implanted L1210 / 0 lymphoid leukemia in mice at a dose of 300 mg/kg per day after treatment 1;7.5-8; conditions: route intraperitoneal

## CCCCCCCCCCCCCCCCCCSCC(COP(=O)(O)OP(=O)(O)OC[C@H]1O[C@@H](n2ccc(N)nc2=O)[C@H](O)[C@@H]1O)OC (stereo partly drawn)
[1]
  ILS at 300 mg/kg/day: -11%
[2]
  ILS at 200 mg/kg/day: 7%
[3]
  Range of survival days: 8
[4]
  Range of survival days: 4
[5]
  T/C: 8
[6]
  T/C: 8

## CCCCCCCCCCCCCCCCCCSCC(COP(=O)(O)OP(=O)(O)OC[C@H]1O[C@@H](n2ccc(N)nc2=O)[C@@H](O)[C@@H]1O)OC (mixture of isomers)
[7]
  ILS at 100 mg/kg/day: 36%
[8]
  ILS at 200 mg/kg/day: -14%
[9]
  Range of survival days: 4
[10]
  Range of survival days: 6
[11]
  T/C: 6
[12]
  T/C: 9.5

## CCCCCCCCCCCCCCCCCCSCC(COP(=O)(O)OP(=O)(O)OC[C@H]1O[C@@H](n2ccc(N)nc2=O)[C@H](O)[C@@H]1O)OC(=O)CCCCCCCCCCCCCCC (mixture of isomers)
[13]
  ILS at 300 mg/kg/day: -11%
[14]
  ILS at 300 mg/kg/day: -6%
[15]
  Range of survival days: 7
[16]
  Range of survival days: 7
[17]
  median survival time: 8 days
[18]
  median survival time: 7.5 days
